The source of these data is PubChem BioAssay AID304 (DTP/NCI, 2004).

The test system of this experiment is Lymphosarcoma Mecca ip in C3AKF1 mice, survival T/C%. In words: NCI In Vivo Anticancer Drug Screen. Data for tumor model Lymphosarcoma Mecca (intraperitoneal) in C3AKF1 (CHKRF1) mice. The conditions noted are these: endpoint: survival time, mean or median, higher = longer survival. How it is done: The antitumor activity of compounds was measured in mice bearing transplantable tumors. Survival or tumor size were measured and the results are expressed as the measurement made in the treated group (T) divided by the measurement made in the vehicle treated control group (C). The tumor model used in this assay is Lymphosarcoma Mecca (intraperitoneal) in C3AKF1 (CHKRF1) mice

Where [1] appears, read: dose: 0.13 mg/kg/injection, schedule: Q01DX010 (ip), vehicle: saline.
The mark [2] stands for this setting: dose: 0.5 mg/kg/injection, schedule: Q01DX010 (ip), vehicle: saline.
Where [3] appears, read: dose: 1.0 mg/kg/injection, schedule: Q01DX010 (ip), vehicle: saline.
[4] abbreviates: dose: 7.5 mg/kg/injection, schedule: Q01DX010 (ip), vehicle: saline.
The mark [5] stands for this setting: dose: 15.0 mg/kg/injection, schedule: Q01DX010 (ip), vehicle: saline.
Setting [6] is: dose: 30.0 mg/kg/injection, schedule: Q01DX010 (ip), vehicle: saline.
The mark [7] stands for this setting: dose: 8.0 mg/kg/injection, schedule: Q01DX010 (ip), vehicle: saline.
[8] abbreviates: dose: 16.0 mg/kg/injection, schedule: Q01DX010 (ip), vehicle: saline.
[9] abbreviates: dose: 2.0 mg/kg/injection, schedule: Q01DX010 (ip), vehicle: saline.
Where [10] appears, read: dose: 4.0 mg/kg/injection, schedule: Q01DX010 (ip), vehicle: saline.
Setting [11] is: dose: 18.8 mg/kg/injection, schedule: Q01DX010 (ip), vehicle: saline.
[12] abbreviates: dose: 37.5 mg/kg/injection, schedule: Q01DX010 (ip), vehicle: saline.
The mark [13] stands for this setting: dose: 75.0 mg/kg/injection, schedule: Q01DX010 (ip), vehicle: saline.
[14] abbreviates: dose: 125.0 mg/kg/injection, schedule: Q01DX010 (ip), vehicle: saline.
Where [15] appears, read: dose: 250.0 mg/kg/injection, schedule: Q01DX010 (ip), vehicle: saline.
Setting [16] is: dose: 500.0 mg/kg/injection, schedule: Q01DX010 (ip), vehicle: saline.
Where [17] appears, read: dose: 10.0 mg/kg/injection, schedule: Q01DX010 (ip), vehicle: saline.
Setting [18] is: dose: 20.0 mg/kg/injection, schedule: Q01DX010 (ip), vehicle: saline.
Setting [19] is: dose: 3.13 mg/kg/injection, schedule: Q01DX010 (ip), vehicle: saline.
[20] abbreviates: dose: 6.25 mg/kg/injection, schedule: Q01DX010 (ip), vehicle: saline.
[21] abbreviates: dose: 12.5 mg/kg/injection, schedule: Q01DX010 (ip), vehicle: saline.
Setting [22] is: dose: 25.0 mg/kg/injection, schedule: Q01DX010 (ip), vehicle: saline.
Setting [23] is: dose: 2.5 mg/kg/injection, schedule: Q01DX010 (ip), vehicle: saline.
The mark [24] stands for this setting: dose: 5.0 mg/kg/injection, schedule: Q01DX010 (ip), vehicle: saline.
The mark [25] stands for this setting: dose: 50.0 mg/kg/injection, schedule: Q01DX010 (ip), vehicle: saline.
Setting [26] is: dose: 100.0 mg/kg/injection, schedule: Q01DX010 (ip), vehicle: saline.
[27] abbreviates: dose: 200.0 mg/kg/injection, schedule: Q01DX010 (ip), vehicle: saline.
[28] abbreviates: dose: 400.0 mg/kg/injection, schedule: Q01DX010 (ip), vehicle: saline.

Where “and” joins values, the source holds several entries; their conditions need not be identical. Identical values can stand only once. Toxic doses and inconclusive results are not listed.

In the case of `CC(=O)NC1=C(N2CC2)C(=O)C(NC(C)=O)=C(N2CC2)C1=O`, the T/C runs as follows: under setting [1], 109 % of control; under setting [2], 177 % of control and 188 % of control; under setting [3], 109 % of control and 111 % of control.
In the case of `CN(C)[C@@H]1C(=O)C(C(N)=O)=C(O)[C@@]2(O)C(=O)C3=C(O)c4c(O)cccc4C[C@H]3C[C@@H]12`, the T/C is 100 % of control (dose: 3.75 mg/kg/injection, schedule: Q01DX010 (ip), vehicle: saline); 100 % of control under setting [4]; 100 % of control under setting [5]; 90 % of control and 94 % of control under setting [6].
Consider `c1ccc(CNc2ncnc3[nH]ncc23)cc1`, for which the T/C under setting [7] is 151 % of control; the T/C under setting [8] is 100 % of control and 118 % of control; the T/C (dose: 32.0 mg/kg/injection, schedule: Q01DX010 (ip), vehicle: saline) was 90 % of control.
For the molecule `Oc1cc(CN(CCCl)CCCl)c(O)cc1CN(CCCl)CCCl`, the T/C (dose: 0.63 mg/kg/injection, schedule: Q01DX010 (ip), vehicle: saline) is 120 % of control.
Take `O=C(Nc1ccc(C2=NCCN2)cc1)c1cccc(C(=O)Nc2ccc(C3=NCCN3)cc2)c1`: the T/C was 113 % of control under setting [7]; 110 % of control and 205 % of control under setting [8]; 175 % of control (dose: 64.0 mg/kg/injection, schedule: Q01DX010 (ip), vehicle: saline).
For `Nc1nc(=S)c2ncn(C3OC(CO)C(O)C3O)c2[nH]1` (stereo not given), the T/C under setting [3] was 115 % of control and 120 % of control; the T/C under setting [9] was 115 % of control; the T/C under setting [10] is 105 % of control and 115 % of control; the T/C under setting [7] is 90 % of control and 105 % of control.
`CS(=O)(=O)OCCCl`: the T/C under setting [11] was 100 % of control, the T/C under setting [12] was 113 % of control and the T/C under setting [13] is 100 % of control.
For `CN(C)c1nc(N(C)C)nc(N(C)C)n1`, the T/C is 105 % of control under setting [11]; 100 % of control under setting [12]; 100 % of control and 111 % of control under setting [13]; 105 % of control and 111 % of control (dose: 150.0 mg/kg/injection, schedule: Q01DX010 (ip), vehicle: saline).
`CCOC(N)=O`: the T/C under setting [14] was 90 % of control and 104 % of control; the T/C under setting [15] was 86 % of control and 95 % of control; the T/C under setting [16] is 95 % of control and 122 % of control.
On to `Nc1nc(F)nc2c1ncn2C1OC(CO)C(O)C1O` (stereo not given), for which the T/C was 100 % of control under setting [2]; 90 % of control and 105 % of control under setting [3]; 90 % of control and 100 % of control under setting [9]; 100 % of control under setting [10]; 100 % of control under setting [7].
For the molecule `COC(=O)[C@@H]1c2cc3c(c(O)c2[C@@H](OC2OC(C)C(OC)C(C)(OC)C2OC)C[C@]1(C)O)C(=O)c1c(O)cc2c(c1C3=O)O[C@H]1O[C@]2(C)[C@H](O)[C@@H](N(C)C)[C@@H]1O` (stereo not given in full), the T/C (dose: 125.0 micrograms/kg/injection, schedule: Q01DX010 (ip), vehicle: saline) is 95 % of control and 100 % of control; the T/C (dose: 250.0 micrograms/kg/injection, schedule: Q01DX010 (ip), vehicle: saline) was 110 % of control; the T/C (dose: 500.0 micrograms/kg/injection, schedule: Q01DX010 (ip), vehicle: saline) is 100 % of control and 105 % of control.
On to `Cc1cn(C2OC(CO)C(O)C2O)c(=O)[nH]c1=O` (stereo not given), for which the T/C (dose: 62.5 mg/kg/injection, schedule: Q01DX010 (ip), vehicle: saline) is 105 % of control; the T/C under setting [14] is 111 % of control; the T/C under setting [15] was 105 % of control; the T/C under setting [16] is 111 % of control.
For the molecule `Cn1c(N)nc2nc[nH]c2c1=S`, the T/C is, setting by setting: under setting [17], 100 % of control and 105 % of control; under setting [18], 100 % of control and 105 % of control; (dose: 40.0 mg/kg/injection, schedule: Q01DX010 (ip), vehicle: saline) 110 % of control; (dose: 80.0 mg/kg/injection, schedule: Q01DX010 (ip), vehicle: saline) 100 % of control.
Turning to `C[C@H]1C(=O)O[C@@H]2CCN3CC=C(COC(=O)[C@](C)(O)[C@@]1(C)O)[C@H]23`, the T/C by setting is: under setting [19], 109 % of control and 115 % of control; under setting [20], 95 % of control and 109 % of control; under setting [21], 105 % of control and 118 % of control; under setting [22], 109 % of control and 115 % of control.
As to `C[C@]12C=CC(=O)C=C1CC[C@@H]1[C@@H]2[C@@H](O)C[C@@]2(C)[C@H]1CC[C@]2(O)C(=O)CO`, the T/C (dose: 12.5 mg/kg/injection, schedule: Q01DX010 (sc), vehicle: steriod suspending solution) is 86 % of control; the T/C (dose: 25.0 mg/kg/injection, schedule: Q01DX010 (sc), vehicle: steriod suspending solution) was 100 % of control; the T/C (dose: 50.0 mg/kg/injection, schedule: Q01DX010 (sc), vehicle: steriod suspending solution) was 160 % of control; the T/C (dose: 100.0 mg/kg/injection, schedule: Q01DX010 (sc), vehicle: steriod suspending solution) was 115 % of control.
On to `CC1CN1P(=S)(N1CC1C)N1CC1C` (stereo not given), for which the T/C is 100 % of control (dose: 1.25 mg/kg/injection, schedule: Q01DX010 (ip), vehicle: saline); 100 % of control and 105 % of control under setting [23]; 100 % of control under setting [24]; 100 % of control and 105 % of control under setting [17]; 100 % of control under setting [18].
As for `COC1C(OC(=O)/C=C/C=C/C=C/C=C/C(=O)O)CCC2(CO2)C1C1(C)OC1CC=C(C)C` (stereo not given), the T/C reads like this: under setting [22], 100 % of control; under setting [25], 100 % of control and 110 % of control; under setting [26], 100 % of control and 104 % of control; under setting [27], 90 % of control.
Consider `C[C@@H]1C[C@@H]([C@H](O)CC2CC(=O)NC(=O)C2)C(=O)[C@@H](C)C1`, for which the T/C was 109 % of control under setting [24]; 100 % of control and 113 % of control under setting [17]; 95 % of control under setting [18].
On to `CN(C)/N=N/c1nc[nH]c1C(N)=O`, for which, under setting [28], the T/C was 155 % of control.
With `NC(=O)N(CCCl)N=O`, the T/C is, setting by setting: under setting [2], 300 % of control; under setting [3], 158 % of control and 230 % of control; under setting [10], 110 % of control.
Consider `Cc1cc2nc3c(=O)[nH]c(=O)nc-3n(CC(O)C(O)C(O)C(O)CO)c2cc1C` (stereo not given), for which the T/C was 95 % of control under setting [22]; 90 % of control and 95 % of control under setting [25]; 90 % of control and 100 % of control under setting [26]; 90 % of control and 100 % of control under setting [27].
Take `S=P(N1CC1)(N1CC1)N1CC1`: the T/C is, setting by setting: under setting [3], 270 % of control; under setting [9], 90 % of control; under setting [10], 109 % of control.
Take `C1CN1c1nc(N2CC2)nc(N2CC2)n1`: the T/C is, setting by setting: under setting [1], 180 % of control; (dose: 0.25 mg/kg/injection, schedule: Q01DX010 (ip), vehicle: saline) 152 % of control; under setting [2], 96 % of control; under setting [3], 95 % of control.
Turning to `N=[N+]=CC(=O)OCC(N)C(=O)O` (stereo not given), the T/C by setting is: under setting [19], 120 % of control and 124 % of control; under setting [20], 100 % of control; under setting [21], 116 % of control; under setting [22], 105 % of control.
Turning to `Clc1ncnc2nc[nH]c12`, the T/C runs as follows: under setting [4], 90 % of control; under setting [5], 95 % of control and 100 % of control; under setting [6], 86 % of control and 95 % of control; (dose: 60.0 mg/kg/injection, schedule: Q01DX010 (ip), vehicle: saline) 86 % of control.
Take `S=P(N1CCOCC1)(N1CC1)N1CC1`: the T/C was 88 % of control under setting [23], 88 % of control under setting [24] and 88 % of control under setting [17].
Regarding `Nc1nc(=O)n(C2CC(O)C(CO)O2)cc1Br` (stereo not given), the T/C under setting [25] is 100 % of control; the T/C under setting [26] is 100 % of control and 105 % of control; the T/C under setting [27] was 100 % of control and 111 % of control; the T/C under setting [28] is 90 % of control and 94 % of control; the T/C (dose: 800.0 mg/kg/injection, schedule: Q01DX010 (ip), vehicle: saline) is 88 % of control.
